Data as given in patent US20050009924A1 (priority 2003, published 2005).

How the values were obtained:
[1] = system: transcriptional activity of hTERT; assay: SEAP reporter assay of hTERT expression, PhTERT-SEAP (hTERT-BJ1); format: cell-based, human; settings: PhTERT-SEAP (hTERT-BJ1)
Method: (§1) Secreted alkaine phosphatase was used as the reporter system to monitor the transcriptional activity of hTERT. Here, about […] each were grown in 96-well plates and incubated at 37° C. for 24 h and changed with fresh media. Varying amounts of drugs were added and cells were incubated for another 24 h. Culture media were collected and heated at 65° C. for 10 min to inactivate heat-labile phosphatases. An equal amount of SEAP buffer (2 M diethanolamine, 1 mM MgCl2, and 20 mM […]) was added to the media and p-nitrophenyl phosphate was added to a final concentration of 12 mM. Absorptions at 405 nm were taken, and the rate of absorption increase is determined.
(§2) Culture media were changed every 3 days. […] The stable clones were selected using G418.

human hepatoma G2 cells = assay: Cytotoxicity assay (XTT colorimetric), Hep G2; format: cell-based; settings: 48 h of drug exposure
[2] = system: non-small-cell lung cancer cells H1299; assay: MTT relative viability, PhTERT-SEAP (H1299) cells; settings: PhTERT-SEAP(hTERT-H1299)
[3] = system: transcriptional activity of hTERT; assay: SEAP reporter assay of hTERT expression, PhTERT-SEAP (H1299); format: cell-based, human; settings: PhTERT-SEAP(hTERT-H1299)
Method: as §1, §2

rat glioma C6 cells = assay: Cytotoxicity assay (XTT colorimetric), C6 cells; format: cell-based; settings: 48 h of drug exposure
[4] = system: hepatitis B virus transfected hepatoma cell lines, HepG 2.2.15 cells; assay: Cytotoxicity assay, 2.2.15 cells; format: cell-based, human; settings: 48 h of drug exposure
hTERT-BJ1 cells = assay: MTT relative viability, PhTERT-SEAP (hTERT-BJ1) cells; settings: PhTERT-SEAP (hTERT-BJ1)
[5] = MTT relative viability, PhTERT-SEAP (H1299) cells; settings: human
[6] = MTT relative viability, PhTERT-SEAP (hTERT-BJ1) cells; settings: human, hTERT-BJ1 cells, stable PhTERT-SEAP reporter clone

## 1,4-Bis(2,5-trifluorobenzoylamido)-9,10-anthracenedione [VI29]
[1]; 1.3 μM
  Relative SEAP activity (%): 16 ± 31.8%
  SEAP/vibility: 0.15
[1]; 13 μM
  Relative SEAP activity (%): 24 ± 21.5%
  SEAP/vibility: 0.28
[1]; 139 μM
  Relative SEAP activity (%): 26 ± 36.9%
  SEAP/vibility: 0.47
Human hepatoma G2 cells
  IC50: > 20 µM
[2]; 1.3 μM
  Relative MTT viability (%): 99 ± 8.6%
[2]; 13 μM
  Relative MTT viability (%): 79 ± 10.3%
[2]; 139 μM
  Relative MTT viability (%): 37 ± 8.8%
[3]; 1.3 μM
  Relative SEAP activity (%): 106 ± 6.7%
  SEAP/vibility: 1.07
[3]; 13 μM
  Relative SEAP activity (%): 105 ± 7.9%
  SEAP/vibility: 1.32
[3]; 139 μM
  Relative SEAP activity (%): 94 ± 10.2%
  SEAP/vibility: 2.56
Rat glioma C6 cells
  IC50: 2.82 µM
[4]
  IC50: 2.2 µM
hTERT-BJ1 cells; 1.3 μM
  Relative MTT viability (%): 107 ± 6.4%
hTERT-BJ1 cells; 13 μM
  Relative MTT viability (%): 85 ± 4.8%
hTERT-BJ1 cells; 139 μM
  Relative MTT viability (%): 56 ± 4.6%

## 1,4-Bis[3-(aminomethyl)cyclopropanepropionamido]-9,10-anthracenedione [VI37]
[1]; 2.0 μM
  Relative SEAP activity (%): 97 ± 13.8%
  SEAP/vibility: 1.02
[1]; 20 μM
  Relative SEAP activity (%): 124 ± 22.8%
  SEAP/vibility: 1.48
[1]; 204 μM
  Relative SEAP activity (%): 105 ± 17.7%
  SEAP/vibility: 3.01
Human hepatoma G2 cells
  IC50: 0.32 µM
[2]; 2.0 μM
  Relative MTT viability (%): 108 ± 7.8%
[2]; 20 μM
  Relative MTT viability (%): 83 ± 1.6%
[2]; 204 μM
  Relative MTT viability (%): 67 ± 9.8%
[3]; 2.0 μM
  Relative SEAP activity (%): 95 ± 4.2%
  SEAP/vibility: 0.88
[3]; 20 μM
  Relative SEAP activity (%): 91 ± 8.9%
  SEAP/vibility: 1.09
[3]; 204 μM
  Relative SEAP activity (%): 52 ± 4.4%
  SEAP/vibility: 0.77
Rat glioma C6 cells
  IC50: 0.4 µM
[4]
  IC50: 1.71 µM
hTERT-BJ1 cells; 2.0 μM
  Relative MTT viability (%): 95 ± 2.5%
hTERT-BJ1 cells; 20 μM
  Relative MTT viability (%): 84 ± 1.5%
hTERT-BJ1 cells; 204 μM
  Relative MTT viability (%): 35 ± 3.7%

## O=C(Nc1ccc(NC(=O)c2ccccc2Cl)c2c1C(=O)c1ccccc1C2=O)c1ccccc1Cl [VI2, 1,4-Bis(2-chlorobenzoylamido)-9,10-anthracenedione]
[1]; 1.9 μM
  Relative SEAP activity (%): 110 ± 20.1%
  SEAP/vibility: 0.95
[1]; 19 μM
  Relative SEAP activity (%): 96 ± 33.4%
  SEAP/vibility: 0.88
[1]; 194 μM
  Relative SEAP activity (%): 95 ± 36.6%
  SEAP/vibility: 1.00
Human hepatoma G2 cells
  IC50: > 20 µM
[2]; 1.9 μM
  Relative MTT viability (%): 114 ± 5.4%
[2]; 19 μM
  Relative MTT viability (%): 72 ± 3.6%
[2]; 194 μM
  Relative MTT viability (%): 60 ± 7.9%
[3]; 1.9 μM
  Relative SEAP activity (%): 108 ± 10.5%
  SEAP/vibility: 0.94
[3]; 19 μM
  Relative SEAP activity (%): 105 ± 7.7%
  SEAP/vibility: 1.47
[3]; 194 μM
  Relative SEAP activity (%): 100 ± 8.9%
  SEAP/vibility: 1.68
Rat glioma C6 cells
  IC50: > 20 µM
[4]
  IC50: > 20 µM
hTERT-BJ1 cells; 1.9 μM
  Relative MTT viability (%): 116 ± 7.7%
hTERT-BJ1 cells; 19 μM
  Relative MTT viability (%): 109 ± 2.2%
hTERT-BJ1 cells; 194 μM
  Relative MTT viability (%): 95 ± 2.0%

## O=C(Nc1ccc(NC(=O)c2ccccc2)c2c1C(=O)c1ccccc1C2=O)c1ccccc1 [VI4, 1,4-Bisbenzoylamido-9,10-anthracenedione]
[1]; 2.2 μM
  Relative SEAP activity (%): (−4) ± 25.7^ %
  SEAP/vibility: −0.04
[1]; 22 μM
  Relative SEAP activity (%): (−10) ± 26.8 ^ %
  SEAP/vibility: −0.14
[1]; 224 μM
  Relative SEAP activity (%): (−41) ± 26.8 ^ %
  SEAP/vibility: −1.10
Human hepatoma G2 cells
  IC50: > 20 µM
[2]; 2.2 μM
  Relative MTT viability (%): 109 ± 6.0%
[2]; 22 μM
  Relative MTT viability (%): 88 ± 6.2%
[2]; 224 μM
  Relative MTT viability (%): 27 ± 1.8%
[3]; 2.2 μM
  Relative SEAP activity (%): 81 ± 3.3%
  SEAP/vibility: 0.74
[3]; 22 μM
  Relative SEAP activity (%): 84 ± 2.6%
  SEAP/vibility: 0.96
[3]; 224 μM
  Relative SEAP activity (%): 80 ± 2.7%
  SEAP/vibility: 2.99
Rat glioma C6 cells
  IC50: > 20 µM
[4]
  IC50: > 20 µM
hTERT-BJ1 cells; 2.2 μM
  Relative MTT viability (%): 95 ± 4.9%
hTERT-BJ1 cells; 22 μM
  Relative MTT viability (%): 69 ± 3.2%
hTERT-BJ1 cells; 224 μM
  Relative MTT viability (%): 38 ± 2.6%

## O=C(Nc1ccc(NC(=O)c2cccc(Cl)c2)c2c1C(=O)c1ccccc1C2=O)c1cccc(Cl)c1 [VI5, 1,4-Bis(3-chlorobenzoylamido)-9,10-anthracenedione]
[1]; 1.9 μM
  Relative SEAP activity (%): 98 ± 10.1%
  SEAP/vibility: 0.99
[1]; 19 μM
  Relative SEAP activity (%): 105 ± 8.8%
  SEAP/vibility: 1.17
[1]; 194 μM
  Relative SEAP activity (%): 89 ± 10.1%
  SEAP/vibility: 1.48
Human hepatoma G2 cells
  IC50: > 20 µM
[2]; 1.9 μM
  Relative MTT viability (%): 95 ± 11.3%
[2]; 19 μM
  Relative MTT viability (%): 102 ± 8.5%
[2]; 194 μM
  Relative MTT viability (%): 59 ± 4.3%
[3]; 1.9 μM
  Relative SEAP activity (%): 110 ± 4.9%
  SEAP/vibility: 1.17
[3]; 19 μM
  Relative SEAP activity (%): 112 ± 6.1%
  SEAP/vibility: 1.10
[3]; 194 μM
  Relative SEAP activity (%): 91 ± 3.0%
  SEAP/vibility: 1.55
Rat glioma C6 cells
  IC50: > 20 µM
[4]
  IC50: > 20 µM
hTERT-BJ1 cells; 1.9 μM
  Relative MTT viability (%): 99 ± 9.8%
hTERT-BJ1 cells; 19 μM
  Relative MTT viability (%): 90 ± 1.9%
hTERT-BJ1 cells; 194 μM
  Relative MTT viability (%): 60 ± 2.0%

## Cc1cccc(C(=O)Nc2ccc(NC(=O)c3cccc(C)c3)c3c2C(=O)c2ccccc2C3=O)c1 [VI6, 1,4-Bis(3-methylbenzoylamido)-9,10-anthracenedione]
[1]; 2.1 μM
  Relative SEAP activity (%): 97 ± 17.1%
  SEAP/vibility: 0.88
[1]; 21 μM
  Relative SEAP activity (%): 78 ± 7.1%
  SEAP/vibility: 0.71
[1]; 210 μM
  Relative SEAP activity (%): 70 ± 5.8%
  SEAP/vibility: 0.69
Human hepatoma G2 cells
  IC50: > 20 µM
[2]; 2.1 μM
  Relative MTT viability (%): 101 ± 5.6%
[2]; 21 μM
  Relative MTT viability (%): 97 ± 6.2%
[2]; 210 μM
  Relative MTT viability (%): 83 ± 7.8%
[3]; 2.1 μM
  Relative SEAP activity (%): 107 ± 4.6%
  SEAP/vibility: 1.06
[3]; 21 μM
  Relative SEAP activity (%): 104 ± 4.0%
  SEAP/vibility: 1.08
[3]; 210 μM
  Relative SEAP activity (%): 99 ± 9.1%
  SEAP/vibility: 1.20
Rat glioma C6 cells
  IC50: > 20 µM
[4]
  IC50: > 20 µM
hTERT-BJ1 cells; 2.1 μM
  Relative MTT viability (%): 110 ± 2.6%
hTERT-BJ1 cells; 21 μM
  Relative MTT viability (%): 109 ± 4.6%
hTERT-BJ1 cells; 210 μM
  Relative MTT viability (%): 101 ± 6.0%

## CCN(CC)CCC(=O)Nc1ccc(NC(=O)CCN(CC)CC)c2c1C(=O)c1ccccc1C2=O [VI34, 1,4-Bis[3-(diethylamino)propionamido]-9,10-anthracenedione]
[1]; 2.0 μM
  SEAP/vibility: 0.03
[1]; 20 μM
  SEAP/vibility: −0.13
[1]; 203 μM
  SEAP/vibility: −0.37
[1]; Homo sapiens, 2.0 μM, read-out: Relative SEAP activity (%)
  activity at 2 µM: 2 ± 11.1%
[1]; Homo sapiens, 20 μM, read-out: Relative SEAP activity (%)
  activity at 20 µM: -2%
[1]; Homo sapiens, 203 μM, read-out: Relative SEAP activity (%)
  activity at 203 µM: -2%
Human hepatoma G2 cells; Homo sapiens, HepG2
  IC50: 0.49 µM
[5]
  viability at 48 h, 2 µM: 92 ± 6.1%
  viability at 48 h, 20 µM: 11 ± 2.5%
  viability at 48 h, 203 µM: 1 ± 2.4%
[3]; 2.0 μM
  SEAP/vibility: 0.79
[3]; 20 μM
  SEAP/vibility: 4.63
[3]; 203 μM
  SEAP/vibility: 44.24
[3]; Homo sapiens, NCI-H1299, 2.0 μM, read-out: Relative SEAP activity (%)
  activity at 2 µM: 73 ± 2.7%
[3]; Homo sapiens, NCI-H1299, 20 μM, read-out: Relative SEAP activity (%)
  activity at 20 µM: 53 ± 2.7%
[3]; Homo sapiens, NCI-H1299, 203 μM, read-out: Relative SEAP activity (%)
  activity at 203 µM: 39 ± 0.8%
Rat glioma C6 cells; Rattus norvegicus, C6
  IC50: 0.9 µM
[4]; Homo sapiens, HepG2.2.15
  IC50: 0.28 µM
[6]
  viability at 48 h, 2 µM: 83 ± 9.2%
  viability at 48 h, 20 µM: 15 ± 3.9%
  viability at 48 h, 203 µM: 6 ± 3.9%
